{
  "source": "patent US20050209278A1",
  "about": "“Piperidinyl- and piperazinyl-sulfonylmethyl hydroxamic acids and their use as protease inhibitors” (priority 2002, published 2005)",
  "key": {"MMP-13": {"molecular_target": "T1, MMP-13 (Homo sapiens, UniProt P45452)", "T1 construct": "made in house; host or cells: baculovirus / insect cells", "test": "In vitro MMP inhibition, IC50 determination (fluorogenic substrate I)", "type": "biochemical", "details": "value in parenthesis; read-out: MMP-13 (IC-50)", "description": "Several hydroxamic acids and salts thereof were analyzed in in vitro assays to determine their ability to inhibit the MMP cleavage of peptide substrates. […] and IC50 constants were calculated from the assayed hydroxamic acid-MMP interactions.\nHuman recombinant MMP-1, MMP-2, MMP-9, MMP-13, and MMP-14 were used in this assay. All enzymes were prepared in Assignee's laboratories following usual laboratory procedures. Protocols for the preparation and use of these enzymes are available in the scientific literature. See, e.g., Enzyme Nomenclature (Academic Press, San Diego, Calif., 1992) (and the citations therein). See also, Freije et al., “Molecular cloning and expression of collagenase-3, a novel human matrix metalloproteinase produced by breast carcinomas,” J Biol. Chem., 269(24), 16766-16773 (1994).\nThe MMP-13 was obtained as a proenzyme from a full-length cDNA clone using baculovirus, as described by V. A. Luckow, “Insect Cell Expression Technology,” Protein Engineering: Principles and Practice, pp. 183-218 (edited by J. L. Cleland et al., Wiley-Liss, Inc., 1996). The expressed proenzyme was first purified over a heparin agarose column, and then over a chelating zinc chloride column. The proenzyme was then activated by APMA for use in the assay. Further details on baculovirus expression systems may be found in, for example, Luckow et al., J. Virol., 67, 4566-79 (1993). See also, O'Reilly et al, Baculovirus Expression Vectors: A Laboratory Manual (W.H. Freeman and Co., New York, N.Y., 1992). See also, King et al., The Baculovirus Expression System: A Laboratory Guide (Chapman & Hall, London, England, 1992).\nAll MMPs were activated using 4-aminophenylmercuric acetate (“APMA”, Sigma Chemical, St. Louis, Mo.) or trypsin. MMP-9 also was activated using human recombinant MMP-3 (purified in Assignee's laboratory following standard cloning and purification techniques).\nTwo fluorogenic, methoxycoumarin-containing polypeptide substrates were used in the MMP inhibition assays: [drawing 427] Here, “Dpa” is 3-(2,4-dinitrophenyl)-L-2,3-diaminopropionyl group, and “MCA” is 7-methoxycoumarin-4-yl acetyl. Substrate (I) was purchased from Baychem (Redwood City, Calif.), and substrate II was prepared Assignee's laboratory. Substrate I was used in the IC50 determination assays, while substrate II was used in the Ki determination assays. In the absence of MMP inhibitory activity, either substrate is cleaved at the Gly-Leu peptide bond. This cleavage separates the highly fluorogenic peptide from the 2,4-dinitrophenyl quencher, thus resulting in increase of fluorescent intensity.\nThe stock solutions of the assayed hydroxamic acids (or salts thereof) were prepared in 1% dimethyl sulfoxide (DMSO). These stock solutions were diluted in Buffer A (100 mM Tris-HCl, 100 mM NaCl, 10 mM CaCl2, 0.05% polyoxyethylene 23 lauryl ether, pH 7.5) to obtain solutions with different hydroxamic acid concentrations, i.e., assay solutions with different concentrations of the assayed MMP inhibitory compound. The experiment controls contained the same amount of Buffer A/DMSO as the assayed sample, but contained no hydroxamic acid (or salt thereof).\nThe assays from which the IC50 determinations were made were performed as follows. The MMPs were activated with either trypsin or APMA (4-aminophenylmercuric acetate, Sigma Chemical, St. Louis, Mo.). The assayed hydroxamic acid samples were incubated in Microfluor™ White Plates (Dynatech, Chantilly, Va.) and analyzed on a Perkin Elmer L550 plate reader (Norwalk, Conn.). The excitation wavelength was 328 nm, and the emission wavelength—415 nm. All samples (assayed hydroxamic acids and controls) were incubated in separate plates at room temperature in the presence of 4 μM of MMP substrate (I). As stated in the previous paragraph, samples containing varying concentrations of the same assayed hydroxamic acid were prepared. Inhibition was measured as a reduction in fluorescent intensity as a function of MMP inhibitor concentration. […]"}, "MMP-14": {"molecular_target": "T2, MMP-14 (Homo sapiens, UniProt P50281)", "T2 construct": "The catalytic domain enzyme was expressed in E. coli inclusion bodies, solubilized in urea; made in house", "test": "In vitro MMP inhibition, Ki determination (fluorogenic substrate II)", "type": "biochemical", "details": "value not in parenthesis; read-out: MMP-14 Ki", "summary_of_the_method": "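Apparent Ki was fitted with Morrison's equation from reaction rates at a single low enzyme level. Enzyme was APMA- or trypsin-activated refolded MMP-14 catalytic domain, buffered at pH 7.5 with 10 mM CaCl2.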"}},
  "note": "pIC50, pKi: −log10 of the molar value.",
  "data": [
    {"molecule": "CCCC(C)Cc1ccc(N2CCN(S(=O)(=O)C3(C(=O)NO)CCN(CCOC)CC3)CC2)cc1", "note": "(stereo not shown) [Example 189]", "values": [
      {"measurement": "pIC50", "setting": "MMP-13", "value": 9.00},
      {"measurement": "pKi", "setting": "MMP-14", "value": "< 5.00"}
    ]},
    {"molecule": "CCC(C)Cc1ccc(N2CCN(S(=O)(=O)C3(C(=O)NO)CCN(CCOC)CC3)CC2)cc1", "note": "(stereo not shown) [Example 190]", "values": [
      {"measurement": "pIC50", "setting": "MMP-13", "value": 8.62},
      {"measurement": "pKi", "setting": "MMP-14", "value": 5.21}
    ]},
    {"molecule": "COCCN1CCC(C(=O)NO)(S(=O)(=O)N2CCN(c3ccc(CCCCC(C)C)cc3)CC2)CC1", "note": "[Example 191]", "values": [
      {"measurement": "pIC50", "setting": "MMP-13", "value": "> 9.00"},
      {"measurement": "pKi", "setting": "MMP-14", "value": 5.17}
    ]},
    {"molecule": "COCCN1CCC(C(=O)NO)(S(=O)(=O)N2CCN(c3ccc(CC(C)C)cc3)CC2)CC1", "note": "[Example 192]", "values": [
      {"measurement": "pIC50", "setting": "MMP-13", "value": 8.44},
      {"measurement": "pKi", "setting": "MMP-14", "value": 5.16}
    ]},
    {"molecule": "CCc1ccc(N2CCN(S(=O)(=O)C3(C(=O)NO)CCN(CCOC)CC3)CC2)cc1", "note": "[Example 193]", "values": [
      {"measurement": "pIC50", "setting": "MMP-13", "value": 8.72},
      {"measurement": "pKi", "setting": "MMP-14", "value": 6.39}
    ]},
    {"molecule": "COCCN1CCC(C(=O)NO)(S(=O)(=O)N2CCN(c3ccc(C)cc3)CC2)CC1", "note": "[Example 194]", "values": [
      {"measurement": "pIC50", "setting": "MMP-13", "value": 8.51},
      {"measurement": "pKi", "setting": "MMP-14", "value": 6.51}
    ]},
    {"molecule": "COCCN1CCC(C(=O)NO)(S(=O)(=O)N2CCN(c3ccccc3)CC2)CC1", "note": "[Example 195]", "values": [
      {"measurement": "pIC50", "setting": "MMP-13", "value": 7.94},
      {"measurement": "pKi", "setting": "MMP-14", "value": 6.38}
    ]},
    {"molecule": "COCCN1CCC(C(=O)NO)(S(=O)(=O)N2CCN(c3nc4ccccc4o3)CC2)CC1", "note": "[Example 196]", "values": [
      {"measurement": "pIC50", "setting": "MMP-13", "value": 6.75},
      {"measurement": "pKi", "setting": "MMP-14", "value": 5.16}
    ]},
    {"molecule": "CCCCCc1ccc(N2CCN(S(=O)(=O)C3(C(=O)NO)CCOCC3)CC2)nn1", "note": "[Example 197]", "values": [
      {"measurement": "pIC50", "setting": "MMP-13", "value": 7.45},
      {"measurement": "pKi", "setting": "MMP-14", "value": "< 5.00"}
    ]},
    {"molecule": "O=C(NO)C1(S(=O)(=O)N2CCN(c3ccc(Cl)nn3)CC2)CCOCC1", "note": "[Example 198]", "values": [
      {"measurement": "pIC50", "setting": "MMP-13", "value": 6.55},
      {"measurement": "pKi", "setting": "MMP-14", "value": 5.89}
    ]},
    {"molecule": "CCCCCCc1ccc(N2CCN(S(=O)(=O)C3(C(=O)NO)CCN(CCOC)CC3)CC2)cc1", "note": "[Example 199]", "values": [
      {"measurement": "pIC50", "setting": "MMP-13", "value": 9.70},
      {"measurement": "pKi", "setting": "MMP-14", "value": 5.34}
    ]},
    {"molecule": "CCCc1ccc(N2CCN(S(=O)(=O)C3(C(=O)NO)CCN(CCOC)CC3)CC2)cc1", "note": "[Example 200]", "values": [
      {"measurement": "pIC50", "setting": "MMP-13", "value": 9.22},
      {"measurement": "pKi", "setting": "MMP-14", "value": 6.07}
    ]},
    {"molecule": "COCCN1CCC(C(=O)NO)(S(=O)(=O)N2CCN(c3ccc(Br)cc3)CC2)CC1", "note": "[Example 201]", "values": [
      {"measurement": "pIC50", "setting": "MMP-13", "value": 9.10},
      {"measurement": "pKi", "setting": "MMP-14", "value": 6.92}
    ]},
    {"molecule": "COCCN1CCC(C(=O)NO)(S(=O)(=O)N2CCN(c3ccc(OC(F)(F)F)cc3)CC2)CC1", "note": "[Example 202]", "values": [
      {"measurement": "pIC50", "setting": "MMP-13", "value": 9.70},
      {"measurement": "pKi", "setting": "MMP-14", "value": 6.21}
    ]},
    {"molecule": "O=C(NO)C1(S(=O)(=O)N2CCN(c3ccc(OC(F)(F)F)cc3)CC2)CCN(C2CC2)CC1", "note": "[Example 203]", "values": [
      {"measurement": "pIC50", "setting": "MMP-13", "value": 9.30},
      {"measurement": "pKi", "setting": "MMP-14", "value": 6.24}
    ]},
    {"molecule": "CCCCCc1ccc(N2CCN(S(=O)(=O)C3(C(=O)NO)CCN(C(C)=O)CC3)CC2)cc1", "note": "[Example 239]", "values": [
      {"measurement": "pKi", "setting": "MMP-14", "value": 5.98}
    ]},
    {"molecule": "CCCCOc1ccc(N2CCN(S(=O)(=O)C3(C(=O)NO)CCN(C(=O)NC(C)(C)C)CC3)CC2)cc1", "note": "[Example 240]", "values": [
      {"measurement": "pKi", "setting": "MMP-14", "value": 5.40}
    ]},
    {"molecule": "CCCCOc1ccc(N2CCN(S(=O)(=O)C3(C(=O)NO)CCN(c4ccc(N(C)C)cc4)CC3)CC2)cc1", "note": "[Example 241]", "values": [
      {"measurement": "pKi", "setting": "MMP-14", "value": "< 5.00"}
    ]},
    {"molecule": "CCCCOc1ccc(N2CCN(S(=O)(=O)C3(C(=O)NO)CCN(C(=O)N(CC)CC)CC3)CC2)cc1", "note": "[Example 242]", "values": [
      {"measurement": "pKi", "setting": "MMP-14", "value": 5.62}
    ]},
    {"molecule": "CCCCOc1ccc(N2CCN(S(=O)(=O)C3(C(=O)NO)CCN(C(=O)N4CCCCC4)CC3)CC2)cc1", "note": "[Example 243]", "values": [
      {"measurement": "pKi", "setting": "MMP-14", "value": 5.69}
    ]},
    {"molecule": "CCCCOc1ccc(N2CCN(S(=O)(=O)C3(C(=O)NO)CCN(C(=O)N(C(C)C)C(C)C)CC3)CC2)cc1", "note": "[Example 244]", "values": [
      {"measurement": "pKi", "setting": "MMP-14", "value": 5.27}
    ]},
    {"molecule": "CCCCOc1ccc(N2CCN(S(=O)(=O)C3(C(=O)NO)CCN(Cc4nccn4C)CC3)CC2)cc1", "note": "[Example 245]", "values": [
      {"measurement": "pKi", "setting": "MMP-14", "value": 5.55}
    ]},
    {"molecule": "CCCCOc1ccc(N2CCN(S(=O)(=O)C3(C(=O)NO)CCN(Cc4ccc(C)o4)CC3)CC2)cc1", "note": "[Example 246]", "values": [
      {"measurement": "pKi", "setting": "MMP-14", "value": 5.23}
    ]},
    {"molecule": "CCCCOc1ccc(N2CCN(S(=O)(=O)C3(C(=O)NO)CCN(Cc4ncc[nH]4)CC3)CC2)cc1", "note": "[Example 247]", "values": [
      {"measurement": "pKi", "setting": "MMP-14", "value": 5.70}
    ]},
    {"molecule": "CCCCOc1ccc(N2CCN(S(=O)(=O)C3(C(=O)NO)CCN(c4ccc(OC)cc4)CC3)CC2)cc1", "note": "[Example 249]", "values": [
      {"measurement": "pKi", "setting": "MMP-14", "value": "< 5.00"}
    ]}
  ]
}
